Ueberlebenszeit and MTD data for one molecule are collected here from patent EP0184990A1, “Alkylidenedioxy compounds” (CIBA-GEIGY AG, priority 1984, dated 1986).

Read-outs that look alike come from different tables or passages of the source.

Data set [1] deals with Rauscher-Leukämie-Virus (RLV, ein RNS-Tumorvirus). The data set is described as follows: Rauscher leukaemia virus infection in mice, survival time. The conditions noted are these: 20 p.o. administrations of 125 mg/kg each, female Balb/c mice infected with Rauscher leukaemia virus; controls 31,7 Tage (p < 0,001 Cox-Test). In kind it is in vivo, weibliche Balb/c-Mäuse. From the text: Die Wirkung auf Virusinfektionen kann anhand von in vivo-Testanordnungen festgestellt werden. So besitzen Verbindungen der Formel I in Tierexperimenten bei gewissen neoplastischen Krankheiten, die durch RNS-Tumorviren hervorgerufen werden, oder bei denen RNS-Tumorviren nachweisbar sind, eine starke Wirksamkeit. Sie verlängern z.B. die mittlere Ueberlebensdauer von Mäusen nach Infektion mit Rauscher-Leukämie-Virus (RLV, ein RNS-Tumorvirus).
Bei den Versuchen mit Rauscher-Leukämie 4 Q (NIH) werden weibliche Balb/c-Mäuse (28 bis 34 Tage alt) mit 0,2 ml einer zehnfach mit Hanks Lösung verdünnten Virussuspension aus Milzmaterial von 4-6 Wochen vorher infizierten Mäusen infiziert. […] Die erste Verabreichung erfolgt 30 Minuten vor der Infektion, weitere Verabreichungen täglich einmal und fünfmal in der Woche während 4 Wochen. Als Kriterium für die Wirkung dient die Verlängerung der Ueberlebenszeit. Während bei den Kontrolltieren ab 30 Tagen nach der Infektion eine Leukämie mit leukämischen Blutzellen von über 50000/mm^3 gefunden werden können und die Tiere zu sterben beginnen, wird die Ueberlebenszeit der mit 125 mg/kg p.o. der Testsubstanz behandelten weiblichen Mäuse signifikant verlängert. […]

A short description of data set [2]: Maximum tolerated dose in mice after single administration. The conditions noted are these: mouse, in vivo, 7-day observation, read-out: maximal tolerierte Dosis. Also noted: species or system Mäusen. Here is the method: Die pharmakologische Wirksamkeit der Verbindungen der vorliegenden Erfindung ist begleitet von einer guten Verträglichkeit. So liegt die maximal tolerierte Dosis für das obengenannte 6,6-Dimethyl-4,5-dihydro-6H-(1,3-dioxolo)r3,41naphthor1,2-blpyran in Mäusen nach einmaliger p.o- und i.p.-Verabreichung und anschliessender 7-tägiger Beobachtungsdauer über 2500 mg/kg bzw. über 1250 mg/kg.

Consider `CC1(C)CCc2c3c(c4ccccc4c2O1)OCO3` [Beispiel 1, 6,6-Dimethyl-4,5-dihydro-6H-(1,3-dioxolo)f3,41-naphthof1,2-blpyran], for which, in data set [1], the Ueberlebenszeit is recorded as 60,9 Tage. Also, the MTD at 168 h in data set [2] (ip, single i.p. administration) is more than 1250 mg/kg; in data set [2] (po, single p.o. administration), more than 2500 mg/kg.
